In the test the test system is Melan-a cells. As to the kind of experiment: Melanin production in Melan-a cells. To be noted: extract 25 μg and 12.5 μg, treated twice, compared to 100% untreated control, FIG. 3. In kind it is cell-based. Here is the method: The chrysanthemum extract in an amount of 25 μg and 12.5 μg was solubilized in DMSO and added to Melan-a cells that were freshly seeded at a density of 5×10^4 cells on a 24 well plate. The cytosolic pH of the Melan-a melanocytes in this assay is about 5-7. Each dose of the chrysanthemum extract was added to the cells in triplicate. The final concentration of DMSO in the culture medium was maintained at 0.25%. Forty eight hours following the first set of treatment, the cells were again treated with the chrysanthemum extract and supplemented with fresh medium. Two days later, melanin was extracted and quantified by normalizing with protein content, following the method described by Komatsu et al. (J. Cosmet. Sci; 64, 455-453 (2013); Rana J. et al., Pigment Cell Res., 18:447 (2005)). Inhibitory activity of samples was reported as % reduction in melanin production compared to 100% untreated control (UT). Phenylthiourea (PTU), a well-known tyrosinase inhibitor was used as positive inhibitor control in the assay. FIG. 3 plots the results.

In the case of `O=c1cc(-c2ccc(O)c(O)c2)oc2cc(O[C@@H]3OC(CO)[C@@H](O)C(O)C3O)cc(O)c12` (stereo partly shown) [luteolin-7 glucoside], the “reduction in melanin production” value is recorded as “dose-dependent inhibition”.

Source of the values: patent US9801809B2, “Compositions including a botanical extract and methods of using the same in skin whitening and skin lightening applications” (Access Business Group International LLC, priority 2014, dated 2017).
